Our source for the carcinogen call and TD50 values is PubChem BioAssay AID1745844 (Carcinogenic Potency Database (CPDB), 2022).

For the series, the system named is rodent lifetime carcinogenesis bioassay, tumor incidence TD50. The series is described as follows: chronic cancer bioassays in animals – CPDB, compiled studies (AID 1745844).
Where [1] appears, read: mouse, strain B6C3F1, females, in feed, site: any site (literature study), lesion: several types, types named in the paper, dosed 103 weeks, study length 104 weeks.
Setting [2] is: mouse, strain B6C3F1, females, in feed, site: lung, lesion: alveolar/bronchiolar adenoma + alveolar/bronchiolar carcinoma, dosed 103 weeks, study length 104 weeks.
Where [3] appears, read: mouse, strain B6C3F1, males, in feed, site: kidney, lesion: tubular-cell adenoma + tubular-cell adenocarcinoma, dosed 103 weeks, study length 104 weeks.
The mark [4] stands for this setting: rat, strain Fischer 344, females, in feed, site: any site (literature study), lesion: several types, types named in the paper, dosed 103 weeks, study length 104 weeks.
[5] abbreviates: rat, strain Fischer 344, males, in feed, site: any site (literature study), lesion: several types, types named in the paper, dosed 103 weeks, study length 104 weeks.

Calls of active or inactive are those of the source. No rule for the calls is given here. Numbered stars: 1 amine (or outer) side, 2 acyl side, 3 side chain; on linkers, the order of the positions; unused ones are H or OH. Bridge positions count the residues as written; N and C are the ends. Square brackets hold non-standard residues; d marks the D form. Peptide text beside a SMILES is read from it. I, II: the chains in the order shown. Actinocin(9to1) = Cc1c2oc3c(C)ccc(C(=O)[*:1])c3nc-2c(C(=O)[*:2])c(N)c1=O; NMeV = CN[C@H](C(=O)O)C(C)C; Sar = CNCC(=O)O

What is called TD50 is the dose at which the toxic effect under study appears in half of the subjects. As to `O=CCBr`, the carcinogen call is, setting by setting: (mouse, strain B6C3F1, females, in drinking water, site: any site (literature study), lesion: several types, types named in the paper, dosed 80 weeks, study length 80 weeks) “negative (inactive)”; (mouse, strain B6C3F1, females, in drinking water, site: lung, lesion: one or several types, types not named, dosed 80 weeks, study length 80 weeks) “negative (inactive)”; (mouse, strain B6C3F1, males, in drinking water, site: any site (literature study), lesion: several types, types named in the paper, dosed 78 weeks, study length 78 weeks) “negative (inactive)”; (mouse, strain B6C3F1, males, in drinking water, site: liver, lesion: one or several types, types not named, dosed 78 weeks, study length 78 weeks) “negative (inactive)”; (mouse, strain B6C3F1, males, in drinking water, site: lung, lesion: papillary tumor, dosed 78 weeks, study length 78 weeks) “negative (inactive)”. For the same compound, the TD50 is 2520 mg/kg/day (inactive) (mouse, strain B6C3F1, females, in drinking water, site: forestomach, lesion: squamous-cell papilloma, dosed 80 weeks, study length 80 weeks); 1020 mg/kg/day (inactive) (mouse, strain B6C3F1, females, in drinking water, site: liver, lesion: hemangioma, dosed 80 weeks, study length 80 weeks); 1890 mg/kg/day (inactive) (mouse, strain B6C3F1, males, in drinking water, site: forestomach, lesion: squamous-cell papilloma, dosed 78 weeks, study length 78 weeks).
As for `CC(=O)N(C(C)=O)c1cccc2c1Cc1ccccc1-2`, the TD50 was 61.2 mg/kg/day (rat, strain Buffalo, females, in feed, site: ear duct, lesion: squamous-cell carcinoma, dosed 53 weeks, study length 93 weeks); 61.2 mg/kg/day (rat, strain Buffalo, females, in feed, site: liver, lesion: hemangioma, dosed 53 weeks, study length 93 weeks); 19 mg/kg/day (rat, strain Buffalo, females, in feed, site: mammary gland, lesion: adenocarcinoma, dosed 53 weeks, study length 93 weeks); 8.63 mg/kg/day (rat, strain Buffalo, females, in feed, site: pituitary gland, lesion: adenoma, dosed 53 weeks, study length 93 weeks).
In the case of `C#C[C@]1(OC(C)=O)CC[C@H]2[C@@H]3CCC4=C[C@@H](OC(C)=O)CC[C@@H]4[C@H]3CC[C@@]21C`, where the note is “rat, strain Wistary/NIN, females, by gavage, site: liver, lesion: one or several types, types not named, dosed 60 weeks, study length 60 weeks”, the carcinogen call is “negative (inactive)”.
On to `C[C@](N)(Cc1ccc(O)c(O)c1)C(=O)O`, for which the carcinogen call by setting is: under setting [1], “negative (inactive)”; under setting [5], “negative (inactive)”. Also, the TD50 is 25000 mg/kg/day under setting [2], 20100 mg/kg/day under setting [3] and 592 mg/kg/day (inactive) under setting [4].
With `CN[C@H]1CCc2cc(OC)c(OC)c(OC)c2-c2ccc(OC)c(=O)cc21`, the TD50 runs as follows: (rat, strain BR 46, males, i.v., site: any site (literature study), lesion: benign tumor, dosed 52 weeks, study length 104 weeks) 0.248 mg/kg/day (inactive); (rat, strain BR 46, males, i.v., site: any site (literature study), lesion: malignant tumor, dosed 52 weeks, study length 104 weeks) 0.129 mg/kg/day (inactive); (rat, strain BR 46, males, i.v., site: any site (literature study), lesion: several types, types named in the paper, dosed 52 weeks, study length 104 weeks) 0.0787 mg/kg/day (inactive).
For the compound `O=P(OCC(Br)CBr)(OCC(Br)CBr)OCC(Br)CBr` (stereo unspecified), the TD50 runs as follows: under setting [1], 148 mg/kg/day; (mouse, strain B6C3F1, females, in feed, site: liver + lung + stomach, lesion: hepatocellular adenoma + hepatocellular carcinoma + alveolar/bronchiolar adenoma + alveolar/bronchiolar carcinoma + squamous-cel, dosed 103 weeks, study length 104 weeks) 80.1 mg/kg/day; (mouse, strain B6C3F1, females, in feed, site: liver, lesion: hepatocellular adenoma + hepatocellular carcinoma + neoplastic nodule, dosed 103 weeks, study length 104 weeks) 95 mg/kg/day; (mouse, strain B6C3F1, females, in feed, site: liver, lesion: hepatocellular adenoma + hepatocellular carcinoma, dosed 103 weeks, study length 104 weeks) 95 mg/kg/day; (mouse, strain B6C3F1, females, in feed, site: liver, lesion: hepatocellular carcinoma, dosed 103 weeks, study length 104 weeks) 221 mg/kg/day; under setting [2], 225 mg/kg/day. Moreover, the TD50 was 127 mg/kg/day (mouse, strain B6C3F1, females, in feed, site: stomach, lesion: squamous-cell carcinoma + squamous-cell papilloma, dosed 103 weeks, study length 104 weeks); 611 mg/kg/day (mouse, strain B6C3F1, females, in feed, site: stomach, lesion: squamous-cell carcinoma, dosed 103 weeks, study length 104 weeks); 264 mg/kg/day (mouse, strain B6C3F1, females, in feed, site: uterus, lesion: endometrial stromal polyp, dosed 103 weeks, study length 104 weeks); 2220 mg/kg/day (mouse, strain B6C3F1, males, in feed, site: any site (literature study), lesion: several types, types named in the paper, dosed 103 weeks, study length 104 weeks); 103 mg/kg/day (mouse, strain B6C3F1, males, in feed, site: kidney + lung + stomach, lesion: tubular-cell adenoma + tubular-cell adenocarcinoma + alveolar/bronchiolar adenoma + alveolar/bronchiolar carcinoma + squamous-ce, dosed 103 weeks, study length 104 weeks); 822 mg/kg/day (mouse, strain B6C3F1, males, in feed, site: kidney, lesion: tubular-cell adenocarcinoma, dosed 103 weeks, study length 104 weeks). Further, the TD50 by setting is: under setting [3], 256 mg/kg/day; (mouse, strain B6C3F1, males, in feed, site: liver, lesion: hepatocellular adenoma + hepatocellular carcinoma + neoplastic nodule, dosed 103 weeks, study length 104 weeks) 172 mg/kg/day; (mouse, strain B6C3F1, males, in feed, site: lung, lesion: alveolar/bronchiolar adenoma + alveolar/bronchiolar carcinoma, dosed 103 weeks, study length 104 weeks) 211 mg/kg/day; (mouse, strain B6C3F1, males, in feed, site: lung, lesion: alveolar/bronchiolar carcinoma, dosed 103 weeks, study length 104 weeks) 449 mg/kg/day; (mouse, strain B6C3F1, males, in feed, site: stomach, lesion: squamous-cell carcinoma + squamous-cell papilloma, dosed 103 weeks, study length 104 weeks) 197 mg/kg/day; under setting [4], 23 mg/kg/day. Also, the TD50 reads like this: (rat, strain Fischer 344, females, in feed, site: kidney, lesion: tubular-cell adenoma, dosed 103 weeks, study length 104 weeks) 13.8 mg/kg/day; (rat, strain Fischer 344, females, in feed, site: liver, lesion: hepatocellular adenoma + hepatocellular carcinoma + neoplastic nodule, dosed 103 weeks, study length 104 weeks) 2820 mg/kg/day; (rat, strain Fischer 344, females, in feed, site: ovary, lesion: Sertoli-cell tumor, dosed 103 weeks, study length 104 weeks) 66.4 mg/kg/day; (rat, strain Fischer 344, males, by gavage, site: colon, lesion: polypoid adenoma, dosed 52 weeks, study length 52 weeks) 13.4 mg/kg/day; (rat, strain Fischer 344, males, by gavage, site: kidney, lesion: adenocarcinoma, dosed 52 weeks, study length 52 weeks) 54.8 mg/kg/day; under setting [5], 8.31 mg/kg/day. Further, the TD50 is 63.3 mg/kg/day (rat, strain Fischer 344, males, in feed, site: kidney, lesion: tubular-cell adenocarcinoma, dosed 103 weeks, study length 104 weeks); 1.57 mg/kg/day (rat, strain Fischer 344, males, in feed, site: kidney, lesion: tubular-cell adenoma + tubular-cell adenocarcinoma, dosed 103 weeks, study length 104 weeks); 1.57 mg/kg/day (rat, strain Fischer 344, males, in feed, site: kidney, lesion: tubular-cell adenoma, dosed 103 weeks, study length 104 weeks); 34.3 mg/kg/day (rat, strain Fischer 344, males, in feed, site: liver, lesion: hepatocellular adenoma + hepatocellular carcinoma + neoplastic nodule, dosed 103 weeks, study length 104 weeks); 34.3 mg/kg/day (rat, strain Fischer 344, males, in feed, site: liver, lesion: hepatocellular carcinoma + neoplastic nodule, dosed 103 weeks, study length 104 weeks); 20.3 mg/kg/day (rat, strain Fischer 344, males, in feed, site: preputial gland, lesion: adenocarcinoma, NOS + adenoma, NOS + carcinoma, NOS, dosed 103 weeks, study length 104 weeks).
On to `Cc1c2oc3c(C)ccc(C(=O)N[C@@H]4C(=O)N[C@H](C(C)C)C(=O)N5CCC[C@H]5C(=O)N(C)CC(=O)N(C)[C@@H](C(C)C)C(=O)O[C@@H]4C)c3nc-2c(C(=O)N[C@@H]2C(=O)N[C@H](C(C)C)C(=O)N3CCC[C@H]3C(=O)N(C)CC(=O)N(C)[C@@H](C(C)C)C(=O)O[C@@H]2C)c(N)c1=O` (I: T[dV]P[Sar][NMeV] / II: T[dV]P[Sar][NMeV]; ester I:1-I:C, II:1-II:C; linker I:N-II:N via Actinocin(9to1)), for which the TD50 is 0.00121 mg/kg/day (rat, strain Charles River CD (Sprague-Dawley), females, i.p., site: any site (literature study), lesion: malignant tumor, dosed 26 weeks, study length 78 weeks); 0.00145 mg/kg/day (rat, strain Charles River CD (Sprague-Dawley), females, i.p., site: any site (literature study), lesion: several types, types named in the paper, dosed 26 weeks, study length 78 weeks); 0.0501 mg/kg/day (rat, strain Charles River CD (Sprague-Dawley), females, i.p., site: lung, lesion: adenoma, dosed 26 weeks, study length 78 weeks); 0.00199 mg/kg/day (rat, strain Charles River CD (Sprague-Dawley), females, i.p., site: peritoneum, lesion: sarcoma, dosed 26 weeks, study length 78 weeks); 0.0201 mg/kg/day (rat, strain Charles River CD (Sprague-Dawley), males, i.p., site: all sites, lesion: lymphosarcoma, dosed 26 weeks, study length 78 weeks); 0.0201 mg/kg/day (rat, strain Charles River CD (Sprague-Dawley), males, i.p., site: all sites, lesion: plasmacytoma, dosed 26 weeks, study length 78 weeks). In addition, the TD50 (rat, strain Charles River CD (Sprague-Dawley), males, i.p., site: any site (literature study), lesion: malignant tumor, dosed 26 weeks, study length 78 weeks) turned out to be 0.000708 mg/kg/day; the TD50 (rat, strain Charles River CD (Sprague-Dawley), males, i.p., site: any site (literature study), lesion: several types, types named in the paper, dosed 26 weeks, study length 78 weeks) was found to be 0.000501 mg/kg/day; the TD50 (rat, strain Charles River CD (Sprague-Dawley), males, i.p., site: liver, lesion: hemangioma, dosed 26 weeks, study length 78 weeks) was found to be 0.0407 mg/kg/day; the TD50 (rat, strain Charles River CD (Sprague-Dawley), males, i.p., site: peritoneum, lesion: sarcoma, dosed 26 weeks, study length 78 weeks) was 0.000769 mg/kg/day.
